Source: ChEMBL document CHEMBL1201862, “PubChem BioAssay data set” (2004)
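Where inhibition never reached the appropriate level, the endpoint shown equals the highest concentration tested. Otherwise, values were interpolated linearly from a five-concentration, 48-hour dose response in 96-well plates. Here, GI50 denotes the concentration required for 50% inhibition of growth.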 Calls of active or inactive are those of the source. Rule as the data show it: active = GI50 up to about 1.1 µM and inactive = higher.

Tests used:
Assay in all cases: NCI anticancer screen, dose series, 48 h
[1] = test system: HCT-116
[2] = test system: CAKI-1
[3] = test system: NCI-H226
[4] = test system: M14
[5] = test system: NCI/ADR-RES
[6] = test system: OVCAR-5
[7] = test system: SNB-19
[8] = test system: UACC-62
[9] = test system: MDA-MB-231
[10] = test system: NCI-H522
[11] = test system: HOP-62
[12] = test system: LOX IMVI
[13] = test system: HOP-92
[14] = test system: NCI-H23
[15] = test system: KM12
[16] = test system: EKVX
[17] = test system: T47D
[18] = test system: BT-549
[19] = test system: ACHN

| Structure (SMILES) | GI50 [1] | GI50 [2] | GI50 [3] | GI50 [4] | GI50 [5] | GI50 [6] | GI50 [7] | GI50 [8] | GI50 [9] | GI50 [10] | GI50 [11] | GI50 [12] | GI50 [13] | GI50 [14] | GI50 [15] | GI50 [16] | GI50 [17] | GI50 [18] | GI50 [19] |
| --- | --- | --- | --- | --- | --- | --- | --- | --- | --- | --- | --- | --- | --- | --- | --- | --- | --- | --- | --- |
| CNC(=O)OC(C)CN1c2ccccc2Sc2ccccc21 (centres undefined) | 57.5 µM (inactive) | > 100 µM (inactive) | > 100 µM (inactive) | 64.9 µM (inactive) | 76 µM (inactive) | > 100 µM (inactive) | > 100 µM (inactive) | > 100 µM (inactive) | > 100 µM (inactive) | > 100 µM (inactive) | > 100 µM (inactive) | 75.2 µM (inactive) | 76.9 µM (inactive) | > 100 µM (inactive) | > 100 µM (inactive) | 51.4 µM (inactive) | > 100 µM (inactive) | > 100 µM (inactive) | 83.8 µM (inactive) |
| CCOC(=O)c1ccc(/N=C/C=C(\Nc2ccc(C(=O)OCC)cc2)c2ccc3ccccc3c2)cc1 | 31.4 µM (inactive) | 25 µM (inactive) | 34 µM (inactive) | 23.7 µM (inactive) | 21.5 µM (inactive) | 48.4 µM (inactive) | 36.2 µM (inactive) | 14 µM (inactive) | 25.1 µM (inactive) | 27.5 µM (inactive) | 30.8 µM (inactive) | 15.7 µM (inactive) | 78 µM (inactive) | 21 µM (inactive) | 17.2 µM (inactive) | – | 13.9 µM (inactive) | 17 µM (inactive) | 30.5 µM (inactive) |
| CCc1n[nH]c(=O)n1/N=C/c1ccc(C)cc1 | 97.9 µM (inactive) | > 100 µM (inactive) | 70.8 µM (inactive) | – | > 100 µM (inactive) | > 100 µM (inactive) | > 100 µM (inactive) | 60.7 µM (inactive) | > 100 µM (inactive) | > 100 µM (inactive) | 37.7 µM (inactive) | 69.8 µM (inactive) | > 100 µM (inactive) | > 100 µM (inactive) | 69.3 µM (inactive) | 3.41 µM (inactive) | > 100 µM (inactive) | > 100 µM (inactive) | > 100 µM (inactive) |
| COc1ccc(CNc2nc(NCc3ccc(OC)cc3)nc(N3CCOCC3)n2)cc1 | 4.49 µM (inactive) | 2.71 µM (inactive) | 19.2 µM (inactive) | 6.35 µM (inactive) | 2.84 µM (inactive) | 4.26 µM (inactive) | 6.31 µM (inactive) | 3.58 µM (inactive) | 6.12 µM (inactive) | 3.95 µM (inactive) | 7.11 µM (inactive) | – | 22.8 µM (inactive) | 3.91 µM (inactive) | 2.34 µM (inactive) | 37.4 µM (inactive) | 9.84 µM (inactive) | 19.1 µM (inactive) | 5.62 µM (inactive) |
| O=C1CCc2c3c(c4c([nH]c5ccccc54)c2CC1)C(=O)NC3=O | 2.05 µM (inactive) | 2.02 µM (inactive) | 3.32 µM (inactive) | 5.05 µM (inactive) | 16.4 µM (inactive) | 34.1 µM (inactive) | 3.94 µM (inactive) | 4.45 µM (inactive) | 25.3 µM (inactive) | 0.766 µM (active) | 12.3 µM (inactive) | 1.18 µM (inactive) | 18.6 µM (inactive) | 8.93 µM (inactive) | 0.0942 µM (active) | 11.1 µM (inactive) | 1.46 µM (inactive) | 7.46 µM (inactive) | 1.01 µM (active) |
| O=[N+]([O-])c1ccc([I+]c2ccccc2)cc1 | 3.77 µM (inactive) | 3.95 µM (inactive) | 9.08 µM (inactive) | 4.29 µM (inactive) | 8.3 µM (inactive) | 7.98 µM (inactive) | 5.52 µM (inactive) | 2.96 µM (inactive) | 3.95 µM (inactive) | 1.92 µM (inactive) | 11.6 µM (inactive) | – | 9.79 µM (inactive) | 2.33 µM (inactive) | 5.04 µM (inactive) | 15.7 µM (inactive) | 6.52 µM (inactive) | 2.8 µM (inactive) | 6.43 µM (inactive) |
| CC(=O)N(C(=O)CC(=O)NNCc1ccccc1Cl)c1ccc(Cl)cc1 | > 10 µM (inactive) | > 10 µM (inactive) | > 10 µM (inactive) | > 10 µM (inactive) | > 10 µM (inactive) | > 10 µM (inactive) | > 10 µM (inactive) | > 10 µM (inactive) | > 10 µM (inactive) | > 10 µM (inactive) | > 10 µM (inactive) | > 10 µM (inactive) | > 10 µM (inactive) | > 10 µM (inactive) | > 10 µM (inactive) | 4.99 µM (inactive) | 8.11 µM (inactive) | > 10 µM (inactive) | > 10 µM (inactive) |
